Key:
Coagulation factor X = Coagulation factor X (Homo sapiens, UniProt P00742); assay: Inhibition of human factor 10a-mediated cleavage of synthetic substrate S-2222
[1] = Mean residence time in monkey at 10 mg/kg, iv; type: ADME, organism-based, Macaca mulatta; set-up: dose 10 mg/kg, route intravenous; details: rhesus monkey, in vivo
[2] = target: Nuclear receptor subfamily 1 group I member 2 (Homo sapiens, UniProt O75469); assay: Activity at PXR
Canis familiaris = assay: Total clearance in dog at 8.3 mg/kg, iv; type: ADME, organism-based, Canis lupus familiaris; set-up: dose 8.3 mg/kg, route intravenous; details: in vivo
[3] = target: T1, Voltage-gated L-type calcium channel (Rattus norvegicus, UniProt P22002+Q02485+P27732); assay: Inhibition of rat DHP binding site of L-type calcium channel at 10 uM
Rhesus monkey = assay: Total clearance in monkey at 10 mg/kg, iv; type: ADME, organism-based, Macaca mulatta; set-up: dose 10 mg/kg, route intravenous; details: in vivo
Cytochrome P450 2C9 [4] = target: T2, Cytochrome P450 2C9 (Homo sapiens, UniProt P11712); assay: Inhibition of CYP2C9 in human TC5 cells; type: ADME, cell-based
T2 sequence (P11712 whole entry): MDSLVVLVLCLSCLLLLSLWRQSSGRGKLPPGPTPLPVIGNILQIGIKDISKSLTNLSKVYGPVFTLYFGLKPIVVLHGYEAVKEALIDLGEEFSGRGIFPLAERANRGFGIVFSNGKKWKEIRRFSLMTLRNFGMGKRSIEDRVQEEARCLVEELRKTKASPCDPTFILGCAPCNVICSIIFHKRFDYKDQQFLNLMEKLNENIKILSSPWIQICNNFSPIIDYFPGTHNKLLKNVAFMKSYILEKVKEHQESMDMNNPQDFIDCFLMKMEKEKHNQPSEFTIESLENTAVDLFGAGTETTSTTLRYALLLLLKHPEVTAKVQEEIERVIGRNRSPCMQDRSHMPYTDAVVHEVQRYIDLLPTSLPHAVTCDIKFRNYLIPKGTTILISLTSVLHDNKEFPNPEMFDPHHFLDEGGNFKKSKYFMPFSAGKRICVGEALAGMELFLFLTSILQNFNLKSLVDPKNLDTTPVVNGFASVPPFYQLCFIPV

[5] = target: Amine oxidase [flavin-containing] A (Rattus norvegicus, UniProt P21396); assay: Inhibition of rat MAO-A at 10 uM
Cytochrome P450 2C19 [6] = target: T3, Cytochrome P450 2C19 (Homo sapiens, UniProt P33261); assay: Inhibition of CYP2C19; type: ADME
T3 sequence (P33261 whole entry): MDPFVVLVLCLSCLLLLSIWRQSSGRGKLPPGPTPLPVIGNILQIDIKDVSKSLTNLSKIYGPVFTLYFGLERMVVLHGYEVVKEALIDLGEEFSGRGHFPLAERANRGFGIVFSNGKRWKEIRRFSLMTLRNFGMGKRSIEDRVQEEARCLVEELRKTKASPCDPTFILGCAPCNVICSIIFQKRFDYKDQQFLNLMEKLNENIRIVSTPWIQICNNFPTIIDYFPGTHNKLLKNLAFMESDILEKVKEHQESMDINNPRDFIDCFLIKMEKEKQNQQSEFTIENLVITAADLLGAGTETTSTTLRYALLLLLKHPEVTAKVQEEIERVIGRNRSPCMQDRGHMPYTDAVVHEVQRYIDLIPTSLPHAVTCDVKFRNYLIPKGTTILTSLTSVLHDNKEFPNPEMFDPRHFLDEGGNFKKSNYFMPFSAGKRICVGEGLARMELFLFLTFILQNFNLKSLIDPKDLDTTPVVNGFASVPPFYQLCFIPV

Cytochrome P450 2C19 [7] = target: T3, Cytochrome P450 2C19; assay: Inhibition of CYP2C19 in human TC5 cells; type: ADME, cell-based
[8] = target: Amine oxidase [flavin-containing] B (Rattus norvegicus, UniProt P19643); assay: Inhibition of rat MAO-B at 10 uM
Amine oxidase [flavin-containing] B, sequence (P19643 whole entry): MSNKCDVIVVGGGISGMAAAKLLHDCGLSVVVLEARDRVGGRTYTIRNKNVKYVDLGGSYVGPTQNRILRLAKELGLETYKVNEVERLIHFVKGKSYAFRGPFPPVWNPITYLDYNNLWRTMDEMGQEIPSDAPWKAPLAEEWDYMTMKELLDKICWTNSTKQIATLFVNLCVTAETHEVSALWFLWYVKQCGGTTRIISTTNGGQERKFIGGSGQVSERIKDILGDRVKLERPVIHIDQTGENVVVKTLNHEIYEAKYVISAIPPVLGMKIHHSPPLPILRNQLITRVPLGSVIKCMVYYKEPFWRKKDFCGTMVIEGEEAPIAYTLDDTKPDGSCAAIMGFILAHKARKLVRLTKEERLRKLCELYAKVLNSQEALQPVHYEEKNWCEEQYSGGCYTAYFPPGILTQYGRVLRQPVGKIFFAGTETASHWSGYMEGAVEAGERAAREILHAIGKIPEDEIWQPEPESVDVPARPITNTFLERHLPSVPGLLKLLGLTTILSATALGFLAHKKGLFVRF

[9] = Volume of distribution at steady state in dog at 8.3 mg/kg, iv; type: ADME, organism-based, Canis lupus familiaris; set-up: dose 8.3 mg/kg, route intravenous; details: in vivo, read-out: Vdss
Rattus norvegicus = assay: Total clearance in rat at 7 mg/kg, iv; type: ADME, organism-based; set-up: dose 7 mg/kg, route intravenous; details: in vivo
Cytochrome P450 1A2 = Cytochrome P450 1A2 (Homo sapiens, UniProt P05177); assay: Inhibition of CYP1A2; type: ADME
Cytochrome P450 1A2, sequence (P05177 whole entry): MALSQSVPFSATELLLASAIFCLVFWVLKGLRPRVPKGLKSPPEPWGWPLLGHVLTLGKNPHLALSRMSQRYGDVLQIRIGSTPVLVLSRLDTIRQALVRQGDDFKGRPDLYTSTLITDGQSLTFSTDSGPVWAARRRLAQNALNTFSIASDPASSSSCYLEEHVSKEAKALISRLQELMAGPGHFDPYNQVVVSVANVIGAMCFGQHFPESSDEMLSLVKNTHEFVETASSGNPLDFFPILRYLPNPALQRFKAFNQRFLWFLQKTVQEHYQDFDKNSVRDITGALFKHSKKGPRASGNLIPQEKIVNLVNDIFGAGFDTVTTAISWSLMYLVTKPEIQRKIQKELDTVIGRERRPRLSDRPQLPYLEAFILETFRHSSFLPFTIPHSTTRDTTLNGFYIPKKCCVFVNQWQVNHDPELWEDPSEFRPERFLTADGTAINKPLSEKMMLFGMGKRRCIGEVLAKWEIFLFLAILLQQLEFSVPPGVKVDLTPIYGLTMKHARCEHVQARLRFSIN

Cytochrome P450 2C8 = Cytochrome P450 2C8 (Homo sapiens, UniProt P10632); assay: Inhibition of CYP2C8; type: ADME
Cytochrome P450 2C8, sequence (P10632 whole entry): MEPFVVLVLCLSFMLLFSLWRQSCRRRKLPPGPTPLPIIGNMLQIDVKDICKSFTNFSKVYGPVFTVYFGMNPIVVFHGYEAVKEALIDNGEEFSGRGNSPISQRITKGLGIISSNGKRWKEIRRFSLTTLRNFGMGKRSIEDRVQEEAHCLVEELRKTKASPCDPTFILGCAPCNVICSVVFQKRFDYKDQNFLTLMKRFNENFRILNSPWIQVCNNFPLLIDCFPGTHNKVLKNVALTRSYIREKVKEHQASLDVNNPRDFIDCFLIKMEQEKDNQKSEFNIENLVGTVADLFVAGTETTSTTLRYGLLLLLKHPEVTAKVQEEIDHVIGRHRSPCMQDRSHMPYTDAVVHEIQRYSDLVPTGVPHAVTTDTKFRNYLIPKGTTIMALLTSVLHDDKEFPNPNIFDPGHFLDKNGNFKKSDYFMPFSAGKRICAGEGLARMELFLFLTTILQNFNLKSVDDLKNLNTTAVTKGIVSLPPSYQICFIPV

[10] = Half life in rat at 7 mg/kg, iv; type: ADME, organism-based; set-up: dose 7 mg/kg, route intravenous; details: in vivo
[11] = Volume of distribution at steady state in rat at 7 mg/kg, iv; type: ADME, organism-based; set-up: dose 7 mg/kg, route intravenous; details: in vivo, read-out: Vdss
Cytochrome P450 3A4 [12] = target: T4, Cytochrome P450 3A4 (Homo sapiens, UniProt P08684); assay: Inhibition of CYP3A4 in human TC5 cells; type: ADME, cell-based
T4 sequence (P08684 whole entry): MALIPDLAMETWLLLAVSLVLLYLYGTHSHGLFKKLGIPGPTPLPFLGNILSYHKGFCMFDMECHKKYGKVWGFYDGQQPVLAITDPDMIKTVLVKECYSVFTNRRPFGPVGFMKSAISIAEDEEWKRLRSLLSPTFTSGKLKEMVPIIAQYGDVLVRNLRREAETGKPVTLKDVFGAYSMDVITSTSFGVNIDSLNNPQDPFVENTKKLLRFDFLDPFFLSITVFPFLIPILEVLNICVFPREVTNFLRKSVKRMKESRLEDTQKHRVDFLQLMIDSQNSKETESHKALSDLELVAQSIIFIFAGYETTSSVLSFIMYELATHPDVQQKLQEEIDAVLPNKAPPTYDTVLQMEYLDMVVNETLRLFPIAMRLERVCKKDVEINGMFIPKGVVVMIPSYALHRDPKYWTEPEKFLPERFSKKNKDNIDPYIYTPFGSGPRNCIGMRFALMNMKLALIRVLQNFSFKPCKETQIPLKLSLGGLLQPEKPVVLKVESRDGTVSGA

Cytochrome P450 3A4 [13] = target: T4, Cytochrome P450 3A4; assay: Inhibition of CYP3A4 using BFC as substrate; type: ADME
Cytochrome P450 3A4 [14] = target: T4, Cytochrome P450 3A4; assay: Inhibition of CYP3A4 using BZR as substrate; type: ADME
[15] = target: T1, Voltage-gated L-type calcium channel; assay: Inhibition of rat verapamil binding site of L-type calcium channel at 10 uM
Cytochrome P450 2D6 [16] = target: T5, Cytochrome P450 2D6 (Homo sapiens, UniProt P10635); assay: Inhibition of CYP2D6 in human TC5 cells; type: ADME, cell-based
T5 sequence (P10635 whole entry): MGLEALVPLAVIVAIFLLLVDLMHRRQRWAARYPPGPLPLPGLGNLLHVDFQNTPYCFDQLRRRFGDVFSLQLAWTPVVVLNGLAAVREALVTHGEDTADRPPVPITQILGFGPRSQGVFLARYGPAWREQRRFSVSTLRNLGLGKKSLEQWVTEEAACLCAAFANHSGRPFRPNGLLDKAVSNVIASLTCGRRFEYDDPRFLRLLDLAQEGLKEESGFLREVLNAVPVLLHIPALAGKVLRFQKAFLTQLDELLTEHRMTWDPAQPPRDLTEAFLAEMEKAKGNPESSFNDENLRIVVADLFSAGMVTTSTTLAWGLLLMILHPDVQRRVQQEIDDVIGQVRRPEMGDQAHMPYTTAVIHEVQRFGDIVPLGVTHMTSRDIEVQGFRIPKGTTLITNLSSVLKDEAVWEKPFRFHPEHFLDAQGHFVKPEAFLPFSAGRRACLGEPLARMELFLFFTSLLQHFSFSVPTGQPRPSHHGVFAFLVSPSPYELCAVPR

[17] = Mean residence time in dog at 8.3 mg/kg, iv; type: ADME, organism-based, Canis lupus familiaris; set-up: dose 8.3 mg/kg, route intravenous; details: in vivo
[18] = target: Tissue-type plasminogen activator (Homo sapiens, UniProt P00750); assay: Inhibition of t-PA
Tissue-type plasminogen activator, sequence (P00750 whole entry): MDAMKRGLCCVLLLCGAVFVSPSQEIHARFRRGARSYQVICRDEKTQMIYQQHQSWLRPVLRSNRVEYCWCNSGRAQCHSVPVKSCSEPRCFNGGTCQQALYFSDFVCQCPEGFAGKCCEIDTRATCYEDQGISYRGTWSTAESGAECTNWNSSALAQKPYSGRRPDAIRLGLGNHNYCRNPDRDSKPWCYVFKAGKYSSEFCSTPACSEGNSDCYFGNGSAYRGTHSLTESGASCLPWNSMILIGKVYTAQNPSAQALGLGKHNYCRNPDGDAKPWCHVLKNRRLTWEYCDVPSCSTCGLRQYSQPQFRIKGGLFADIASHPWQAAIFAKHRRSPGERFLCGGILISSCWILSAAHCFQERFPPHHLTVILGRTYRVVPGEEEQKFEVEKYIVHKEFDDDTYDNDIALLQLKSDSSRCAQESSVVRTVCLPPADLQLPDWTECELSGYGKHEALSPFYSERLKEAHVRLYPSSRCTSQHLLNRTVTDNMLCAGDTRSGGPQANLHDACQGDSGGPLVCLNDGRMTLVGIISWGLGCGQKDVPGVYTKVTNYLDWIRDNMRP

Cytochrome P450 2C9 [19] = target: T2, Cytochrome P450 2C9; assay: Inhibition of CYP2C9; type: ADME
Prothrombin = Prothrombin (Homo sapiens, UniProt P00734); assay: Inhibition of thrombin
Cytochrome P450 2B6 = Cytochrome P450 2B6 (Homo sapiens, UniProt P20813); assay: Inhibition of CYP2B6; type: ADME
Plasminogen = Plasminogen (Homo sapiens, UniProt P00747); assay: Inhibition of plasmin
[20] = target: Vitamin K-dependent protein C (Homo sapiens, UniProt P04070); assay: Inhibition of activated protein C
Vitamin K-dependent protein C, sequence (P04070 43-197 limits assumed): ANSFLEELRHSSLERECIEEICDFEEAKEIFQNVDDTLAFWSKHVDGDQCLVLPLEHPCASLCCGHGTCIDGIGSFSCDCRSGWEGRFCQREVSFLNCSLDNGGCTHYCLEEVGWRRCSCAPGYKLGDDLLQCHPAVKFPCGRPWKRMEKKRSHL
Vitamin K-dependent protein C, sequence (P04070 212-461 limits assumed): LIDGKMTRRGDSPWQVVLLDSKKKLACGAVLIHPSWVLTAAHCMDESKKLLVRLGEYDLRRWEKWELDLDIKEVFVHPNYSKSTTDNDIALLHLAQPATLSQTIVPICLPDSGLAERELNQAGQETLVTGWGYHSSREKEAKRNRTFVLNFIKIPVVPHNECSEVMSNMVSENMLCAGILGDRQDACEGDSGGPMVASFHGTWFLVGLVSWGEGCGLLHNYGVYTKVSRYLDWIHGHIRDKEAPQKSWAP

[21] = Volume of distribution at steady state in monkey at 10 mg/kg, iv; type: ADME, organism-based, Macaca mulatta; set-up: dose 10 mg/kg, route intravenous; details: rhesus monkey, in vivo, read-out: Vdss
[22] = Half life in dog at 8.3 mg/kg, iv; type: ADME, organism-based, Canis lupus familiaris; set-up: dose 8.3 mg/kg, route intravenous; details: in vivo
[23] = Bioavailability in monkey at 10 mg/kg, po; type: ADME, organism-based, Macaca mulatta; details: rhesus monkey, in vivo
Cytochrome P450 2D6 [24] = target: T5, Cytochrome P450 2D6; assay: Inhibition of CYP2D6; type: ADME
[25] = Mean residence time in rat at 7 mg/kg, iv; type: ADME, organism-based; set-up: dose 7 mg/kg, route intravenous; details: in vivo
[26] = Half life in monkey at 10 mg/kg, iv; type: ADME, organism-based, Macaca mulatta; set-up: dose 10 mg/kg, route intravenous; details: rhesus monkey, in vivo
[27] = Oral bioavailability in dog at 7 mg/kg; type: ADME, organism-based, Canis lupus familiaris; details: in vivo
[28] = target: Urokinase-type plasminogen activator (Homo sapiens, UniProt P00749); assay: Inhibition of u-PA
[29] = Oral Bioavailability in rat at 10 mg/kg; type: ADME, organism-based; details: in vivo

Coagulation factor X, sequence (P00742 41-179 limits assumed): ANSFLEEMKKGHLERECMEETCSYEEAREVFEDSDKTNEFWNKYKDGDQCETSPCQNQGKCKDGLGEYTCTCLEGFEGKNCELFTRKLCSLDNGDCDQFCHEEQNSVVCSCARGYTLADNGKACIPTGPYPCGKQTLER
Coagulation factor X, sequence (P00742 235-488 limits assumed): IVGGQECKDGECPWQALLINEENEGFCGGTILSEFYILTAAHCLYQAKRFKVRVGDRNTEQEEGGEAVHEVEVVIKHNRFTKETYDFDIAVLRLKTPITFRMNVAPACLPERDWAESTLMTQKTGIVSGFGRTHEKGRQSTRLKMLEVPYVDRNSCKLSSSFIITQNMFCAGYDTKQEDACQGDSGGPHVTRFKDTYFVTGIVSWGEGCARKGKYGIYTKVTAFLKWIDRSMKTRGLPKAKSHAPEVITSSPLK

Cc1cc2cc(N=C(NC#N)NC3CCCCCN(CC(=O)N4CCCC4)C3=O)ccc2o1 (racemic)
IC50 (Coagulation factor X): 195 nM

Cc1cc2ccc(N/C(=N\C#N)N[C@H]3CCCCN(CC(=O)N4CCCC4)C3=O)cc2o1
IC50 (Coagulation factor X): > 34000 nM

Cc1oc2ccc(N=C(NC#N)N[C@H]3CCCCN(CC(=O)N4CCCC4)C3=O)cc2c1C
IC50 (Coagulation factor X): 349 nM

Cc1cc2cc(N/C(=N\C#N)N[C@H]3CCCCN(CC(=O)N4C5CCC4CNC5)C3=O)ccc2o1
EC (Plasma): 11.5 µM
IC50 (Coagulation factor X): 5 nM

Cc1nc2cc(N/C(=N\C#N)N[C@H]3CCCCN(CC(=O)N4CCCC4)C3=O)ccc2o1
IC50 (Coagulation factor X): 2680 nM

Cc1cc2cc(N=C(NC#N)N[C@H]3CCCCN(CC(=O)N4CCCC4)C3=O)cc(C)c2o1
IC50 (Coagulation factor X): 21 nM

Cc1cc2cc(N/C(=N\C#N)N[C@H]3CCCCN(CC(=O)N4CCC(Cc5ccccc5)C4)C3=O)ccc2o1 (stereo partly drawn)
EC (Plasma): >50 µM
IC50 (Coagulation factor X): 53 nM

Cc1cc2cc(N=C(NC#N)N[C@H]3CCCCN(CC(=O)N4CCCC4)C3=O)c(F)cc2o1
IC50 (Coagulation factor X): 76 nM

N#C/N=C(\Nc1ccc2occc2c1)N[C@H]1CCCCN(CC(=O)N2CCCC2)C1=O
IC50 (Coagulation factor X): 84 nM

Cc1cc2cc(N=C(NC#N)N[C@H]3CCCCN(CC(=O)N4CCCC4)C3=O)ccc2s1
IC50 (Coagulation factor X): 2880 nM

Cc1cc2cc(N=C(NC#N)N[C@H]3CCCCN(CC(=O)N4CCCC4)C3=O)ccc2o1
MRT [1]: 1.5 h
EC50 [2]: > 25000 nM
clearance (Canis familiaris): 0.12 mL/min/kg
inhibition (INH) [3]: Not Active
clearance (Rhesus monkey): 2.2 mL/min/kg
IC50 (Cytochrome P450 2C9 [4]): > 200000 nM
inhibition (INH) [5]: Not Active
IC50 (Cytochrome P450 2C19 [6]): > 40000 nM
IC50 (Cytochrome P450 2C19 [7]): > 200000 nM
inhibition (INH) [8]: Not Active
Vd [9]: 0.11 L/kg
clearance (Rattus norvegicus): 1.7 mL/min/kg
IC50 (Cytochrome P450 1A2): > 40000 nM
IC50 (Cytochrome P450 2C8): > 40000 nM
half-life [10]: 2.4 h
Vd [11]: 0.19 L/kg
IC50 (Cytochrome P450 3A4 [12]): > 200000 nM
IC50 (Cytochrome P450 3A4 [13]): 18500 nM
IC50 (Cytochrome P450 3A4 [14]): > 40000 nM
inhibition (INH) [15]: Not Active
IC50 (Cytochrome P450 2D6 [16]): > 200000 nM
MRT [17]: 16 h
Ki [18]: 3700 nM
IC50 (Cytochrome P450 2C9 [19]): 29200 nM
Ki (Prothrombin): 6600 nM
IC50 (Cytochrome P450 2B6): > 40000 nM
Ki (Plasminogen): > 16000 nM
Ki [20]: > 18000 nM
Vd [21]: 1.8 L/kg
half-life [22]: 10.3 h
bioavailability [23]: 49%
IC50 (Cytochrome P450 2D6 [24]): > 40000 nM
MRT [25]: 1.9 h
half-life [26]: 2.9 h
bioavailability [27]: 77%
Ki [28]: > 7800 nM
bioavailability [29]: 50%

Cc1nc2ccc(N/C(=N\C#N)N[C@H]3CCCCN(CC(=O)N4CCCC4)C3=O)cc2o1
IC50 (Coagulation factor X): 18800 nM

CC(=O)NC[C@H]1CCCN1C(=O)CN1CCCC[C@H](N/C(=N\C#N)Nc2ccc3oc(C)cc3c2)C1=O
EC (Plasma): 33 µM
IC50 (Coagulation factor X): 28 nM

CC(=O)NC[C@@H]1CCCN1C(=O)CN1CCCC[C@H](N/C(=N\C#N)Nc2ccc3oc(C)cc3c2)C1=O
EC (Plasma): >50 µM
IC50 (Coagulation factor X): 54 nM

Cc1cc2cc(N=C(NC#N)N[C@H]3CCCCN(CC(=O)N4CCCC4)C3=O)ccc2[nH]1
IC50 (Coagulation factor X): > 34000 nM

Cc1cc2ccc(N/C(=N\C#N)N[C@H]3CCCCN(CC(=O)N4CCCC4)C3=O)cc2[nH]1
IC50 (Coagulation factor X): 1300 nM

Cc1cc2c(F)c(N/C(=N\C#N)N[C@H]3CCCCN(CC(=O)N4CCCC4)C3=O)ccc2o1
IC50 (Coagulation factor X): 2730 nM

Cn1cc2cc(N/C(=N\C#N)N[C@H]3CCCCN(CC(=O)N4CCCC4)C3=O)ccc2n1
IC50 (Coagulation factor X): 2400 nM

N#C/N=C(\Nc1ccc2oc(C#N)cc2c1)N[C@H]1CCCCN(CC(=O)N2CCCC2)C1=O
IC50 (Coagulation factor X): 2600 nM

Cc1cc2cc(N/C(=N\C#N)N[C@H]3CCCN(CC(=O)N4CCCC4)C3=O)ccc2o1
IC50 (Coagulation factor X): 928 nM

Cc1nc2ccc(N=C(NC#N)N[C@H]3CCCCN(CC(=O)N4CCCC4)C3=O)cc2[nH]1
IC50 (Coagulation factor X): 11900 nM

Cc1cc2cc(N/C(=N\C#N)N[C@H]3CCCCN(CC(=O)N4CCCC4Cc4ccccc4)C3=O)ccc2o1 (stereo partly drawn)
EC (Plasma): >50 µM
IC50 (Coagulation factor X): 19 nM

Cc1cc2cc(N/C(=N\C#N)N[C@H]3CCCCN(CC(=O)N4CCC[C@@H]4CN)C3=O)ccc2o1
EC (Plasma): 27 µM
IC50 (Coagulation factor X): 22 nM

Cc1cc2cc(N/C(=N\C#N)N[C@H]3CCCCN(CC(=O)N4CCC[C@H]4CN)C3=O)ccc2o1
IC50 (Coagulation factor X): 386 nM

Cc1cc2cc(N/C(=N\C#N)N[C@H]3CCCCN(CC(=O)N4CCCC4)C3=O)cc(F)c2o1
IC50 (Coagulation factor X): 11 nM

Cc1cc2cc(N/C(=N\C#N)N[C@H]3CCCCN(CC(=O)N4CC5CC5C4)C3=O)ccc2o1 (stereo partly drawn)
EC (Plasma): 56 µM
IC50 (Coagulation factor X): 15 nM

Cc1cc2cc(N=C(NC#N)N[C@@H]3CCN(CC(=O)N4CCCC4)C3=O)ccc2o1
IC50 (Coagulation factor X): 30000 nM

COc1cc(N=C(NC#N)N[C@H]2CCCCN(CC(=O)N3CCCC3)C2=O)cc2cc(C)oc12
IC50 (Coagulation factor X): 14800 nM

Cc1cc2cc(N/C(=N\C#N)N[C@H]3CCCCN(CC(=O)N4CCCC4)C3=O)cc(Cl)c2o1
IC50 (Coagulation factor X): 27 nM

CCc1cc2cc(N=C(NC#N)N[C@H]3CCCCN(CC(=O)N4CCCC4)C3=O)ccc2o1
IC50 (Coagulation factor X): 15500 nM

Cc1coc2ccc(N=C(NC#N)N[C@H]3CCCCN(CC(=O)N4CCCC4)C3=O)cc12
IC50 (Coagulation factor X): 2940 nM

Cc1cc2cc(N/C(=N\C#N)N[C@H]3CCN(CC(=O)N4CCCC4)C3=O)ccc2o1
IC50 (Coagulation factor X): > 32000 nM

N#C/N=C(\Nc1ccc2ccccc2c1)N[C@H]1CCCCN(CC(=O)N2CCCC2)C1=O
IC50 (Coagulation factor X): 780 nM

Cc1cc2cc(N/C(=N\C#N)N[C@H]3CCCCN(CC(=O)N4CCCC4)C3=O)cc(C(F)(F)F)c2o1
IC50 (Coagulation factor X): 167 nM

Cc1cn2cc(N/C(=N\C#N)N[C@H]3CCCCN(CC(=O)N4CCCC4)C3=O)ccc2n1
IC50 (Coagulation factor X): > 34000 nM
